Data on 81 compounds can be found in PMC12040169 (PLOS Biology, 2025).

One series in a line: in vitro. The following applies: human, hela cells.
Regarding `Nc1ncnc2c1ccn2[C@@H]1O[C@H](CO)[C@H](O)C1O` (stereo partly drawn) [CBK201176], the viability (usually a read-out of living cells in per cent, often relative to untreated cells) at 28.5 h, 10 µM worked out at 0%.

Still in this series, the particulars now being: human, hela cells, % viability.
As for `CC(=O)N1CCc2sccc2C1c1ccc(NC(=O)c2ccco2)cc1` (stereo not drawn) [CBK286199], the viability at 28.5 h, 10 µM is 102%.

Turning to `Cc1csc(C(Cc2ccsc2)NC(=O)CC2CCCO2)n1` (stereo not drawn) [CBK282227], the viability at 28.5 h, 10 µM was determined as 92.1%.

`Cc1ccc(-c2n[nH]c(=S)n2CCC(=O)N2CCC(c3c[nH]c4ccccc34)CC2)cc1` [CBK296739]: the viability at 28.5 h, 10 µM amounted to 86.8%.

Regarding `Cc1ccc(C2C=C(c3ccccc3)Nc3nc(N4C(=O)CCC4=O)nn32)cc1` (stereo not drawn) [CBK266197], the viability at 28.5 h, 10 µM was determined as 98.6%.

In the case of `O=c1[nH]c(CN2CCCCCCC2)nc2ccccc12` [CBK283205], the viability at 28.5 h, 10 µM turned out to be 117%.

For the compound `CCOC(=O)c1c(NC(=O)Cn2cnc([N+](=O)[O-])n2)sc2c1CCC2` [CBK263042], the viability at 28.5 h, 10 µM is 92.5%.

Regarding `COc1ccc(NC(=O)CCC(=O)N2CCC(C(=O)O)CC2)cc1` [CBK286588], the viability at 28.5 h, 10 µM amounted to 100%.

Regarding `COc1cccc(NC(=O)N(CCCO)C2CCc3ccccc32)c1` (stereo not drawn) [CBK305397], the viability at 28.5 h, 10 µM was determined as 95%.

With `O=C1CN(C(=O)Cn2c(-c3cccs3)cc3cccnc32)CCN1` [CBK282543], the viability at 28.5 h, 10 µM was 100%.

For `O=C(O)CCc1ccc(-c2cn3ccnc3c(NCc3ccncc3)n2)cc1` [CBK038022], the viability at 28.5 h, 10 µM turned out to be 90.6%.

As to `Cc1ccc2[nH]c(/C(C#N)=C\c3cc(C)n(-c4ccc(S(N)(=O)=O)cc4)c3C)nc2c1` [CBK267611], the viability at 28.5 h, 10 µM is 105%.

Take `CCCCn1c(=O)c(C(=O)Nc2ccccc2S(N)(=O)=O)c(O)c2ccccc21` [CBK262260]: the viability at 28.5 h, 10 µM stood at 98.6%.

As to `CCCS(=O)(=O)N1Cc2c(ncn2C)C[C@H]1C(=O)OC` [CBK288991], the viability at 28.5 h, 10 µM came to 90.2%.

For the compound `O=C(NCCNCc1ccco1)c1ccc(F)cc1` [CBK266873G], the viability at 28.5 h, 10 µM amounted to 103%.

For the compound `Cc1nc(-c2cccnc2)[nH]c(=O)c1CCC(=O)N1CCNC(C)C1` (stereo not drawn) [CBK304163], the viability at 28.5 h, 10 µM stood at 102%.

As for `O=C(NC(=O)C1CCNCC1)Nc1ccccc1` [CBK034794], the viability at 28.5 h, 10 µM turned out to be 93.8%.

As for `COc1ccc(-c2csc(N3CCN(C)CC3)n2)cc1F` [CBK305910], the viability at 28.5 h, 10 µM was 88.7%.

`COc1cc(CNc2nnn[nH]2)cc(Br)c1OCc1ccc(Cl)cc1` [CBK300496]: the viability at 28.5 h, 10 µM is 87.2%.

As to `O=C(CN1CCOCC1)Nc1ccc(Br)cc1[N+](=O)[O-]` [CBK267314], the viability at 28.5 h, 10 µM turned out to be 96.9%.

As to `NC(=O)c1cccnc1N1CCN(CCCN(c2ccc(F)cc2)c2ccc(F)cc2)CC1` [CBK025341C], the viability at 28.5 h, 10 µM came to 110%.

Take `Cc1c(Br)c(C(F)(F)F)nn1CC(=O)Nc1cc(C(F)(F)F)ccc1Cl` [CBK087518]: the viability at 28.5 h, 10 µM was determined as 92.5%.

For the compound `COc1ccc(S(=O)(=O)Nc2nnc(C(C)C)s2)cc1` [CBK045525], the viability at 28.5 h, 10 µM was determined as 91.3%.

Turning to `CN(C)c1ccc(C=Nc2ccc(NC(=O)CCC(=O)O)cc2)cc1` [CBK296091], the viability at 28.5 h, 10 µM is 92%.

For the compound `COc1cc(CN2CCC(N3CCN(c4ccccc4)CC3)CC2)ccc1OCc1ccccc1` [CBK264655G], the viability at 28.5 h, 10 µM is 95.6%.

In the case of `CC(Nc1cc(N2CCN(CCO)CC2)ccc1[N+](=O)[O-])c1ccccc1` (stereo not drawn) [CBK033838], the viability at 28.5 h, 10 µM was found to be 106%.

`COC(=O)Nc1nc(Cl)cc(Cl)n1` [CBK027433]: the viability at 28.5 h, 10 µM was 93.8%.

With `CCOC(=O)c1cnn(C2CCCN(C(=O)c3cscc3C)C2)c1` (stereo not drawn) [CBK305385], the viability at 28.5 h, 10 µM came out at 93.1%.

For the compound `CCC(NC(=O)Nc1cc(N2CCOCC2)ccc1Cl)c1nccs1` (stereo not drawn) [CBK306519], the viability at 28.5 h, 10 µM was determined as 93.2%.

Take `CN(CCN1CCCCC1)C(=O)c1ccccc1Cn1cccn1` [CBK281904]: the viability at 28.5 h, 10 µM was 105%.

`CCCCSc1nc(N)cc(N2CCOCC(CN(C)C)C2)n1` (stereo not drawn) [CBK306659]: the viability at 28.5 h, 10 µM was 103%.

For the compound `Cc1csc2ncnc(N3CCN(C(=O)C4CC4)CC3)c12` [CBK023593], the viability at 28.5 h, 10 µM amounted to 112%.

Regarding `COc1ccccc1N1CCN(C(=O)c2snnc2C)CC1` [CBK057792], the viability at 28.5 h, 10 µM came out at 92.8%.

Take `Cc1csc2nc(CN3CCN(C(=O)c4ccccc4)CC3)cc(=O)n12` [CBK305019]: the viability at 28.5 h, 10 µM is 110%.

As for `Cc1nccn1CC1(O)CCN(CC2=CCC3CC2C3(C)C)CC1` (stereo not drawn) [CBK284981], the viability at 28.5 h, 10 µM turned out to be 94.6%.

Take `O=C(O)c1cc(NC(=O)c2cccc(F)c2)cc(NC(=O)c2cccc(F)c2)c1` [CBK262800]: the viability at 28.5 h, 10 µM is 90.6%.

Take `O=c1[nH]c(=O)c2cc(S(=O)(=O)NCC3(c4ccccc4)CCCC3)ccc2[nH]1` [CBK286387]: the viability at 28.5 h, 10 µM came to 112%.

Consider `O=C(NC1CC1)c1ccc(-c2cnc3[nH]c(=O)n(CC4CCOCC4)c3n2)cc1` [CBK064890], for which the viability at 28.5 h, 10 µM turned out to be 85.2%.

As for `NC(=O)c1ccccc1NC(=O)CN1CCN(Cc2cccc(Cl)c2)CC1` [CBK270320], the viability at 28.5 h, 10 µM was determined as 103%.

For the compound `O=C(NCCN1CCCC1)c1ccc(Nc2cncc(-c3ccc(O)cc3)n2)c(Cl)c1` [CBK122666], the viability at 28.5 h, 10 µM was 85.4%.

For `COc1ccc(C(=O)Nc2cc(C)c3c(=O)oc4ccccc4c3n2)cc1` [CBK287435], the viability at 28.5 h, 10 µM turned out to be 79.6%.

Take `CCN(Cc1cccs1)C(=O)NC1CCCc2c1cnn2CCO` (stereo not drawn) [CBK305768]: the viability at 28.5 h, 10 µM amounted to 81.6%.

Regarding `Nc1cccc(S(=O)(=O)N2CCC(C(=O)O)CC2)c1` [CBK286541], the viability at 28.5 h, 10 µM turned out to be 88.2%.

Consider `CS(=O)(=O)N1CCC2(CC1)NC(=O)N(Cc1ccccc1)C2=O` [CBK287656], for which the viability at 28.5 h, 10 µM is 100%.

With `O=C(Cc1c[nH]c2ccccc12)Nc1cncc(OC2CCNCC2)n1` [CBK028441T], the viability at 28.5 h, 10 µM stood at 91%.

`CCCc1nnc(C(=O)NC(=O)NCCCN(C)C)s1` [CBK018853]: the viability at 28.5 h, 10 µM is 84.3%.

Take `N#CCCn1cc(C(=O)N2CCCCC2)c(-c2ccc(F)cc2)n1` [CBK306191]: the viability at 28.5 h, 10 µM came out at 91.8%.

Turning to `Cc1ccc(O)c(CN(CCCn2ccnc2)CC2CC=CCC2)c1` (stereo not drawn) [CBK282829], the viability at 28.5 h, 10 µM stood at 86.7%.

On to `N=c1n(-c2ccccc2)c(O)c(C(c2ccncc2)c2c(O)n(-c3ccccc3)c(=N)n(-c3ccccc3)c2=O)c(=O)n1-c1ccccc1` (stereo not drawn) [CBK261438], for which the viability at 28.5 h, 10 µM stood at 82%.

Turning to `O=C1N=C(NC2CCCCCC2)SC1Cc1nc2ccccc2[nH]1` (stereo not drawn) [CBK066789], the viability at 28.5 h, 10 µM came out at 83.7%.

Take `COc1ccc(Cl)cc1N1CCN(CCO)CC1` [CBK138339]: the viability at 28.5 h, 10 µM turned out to be 88.7%.

Turning to `Cc1cc(C)nc(NC(=N)NCc2ccccc2)n1` [CBK288157], the viability at 28.5 h, 10 µM was determined as 94.2%.

With `Nc1ncc(-c2ccc(C(=O)N3CCOCC3)cc2)nc1C(=O)Nc1ccccc1` [CBK149153], the viability at 28.5 h, 10 µM worked out at 85.7%.

`CCc1nccn1C(C)C(=O)Nc1ccc2ncn(C)c2c1` (stereo not drawn) [CBK281745]: the viability at 28.5 h, 10 µM is 107%.

With `CCn1cc(S(=O)(=O)N2CCC3(CC2)OCCO3)cn1` [CBK270321], the viability at 28.5 h, 10 µM stood at 112%.

In the case of `Cc1nc2c(C(=O)N3CCNC(=O)C3)cnn2c(C)c1Cc1ccccc1` [CBK162197], the viability at 28.5 h, 10 µM worked out at 90.3%.

For `CCc1ccc(OCC(=O)c2ccc(O)c(CN(C)C)c2O)cc1` [CBK264438C], the viability at 28.5 h, 10 µM was found to be 116%.

Take `O=C(c1cccc(Cl)c1)N1CCC(O)(c2cccnc2)CC1` [CBK283553]: the viability at 28.5 h, 10 µM stood at 93.2%.

On to `CCN1CCN(Cc2c(C(C)C)[nH]c3ncccc23)CC1` [CBK285343], for which the viability at 28.5 h, 10 µM is 83.6%.

Regarding `CSc1nnc2n3ncnc3c3c4c(sc3n12)CCCC4C` (stereo not drawn) [CBK288542], the viability at 28.5 h, 10 µM was found to be 97.3%.

As for `COC(=O)c1ccccc1NC(=O)Cn1cncc1-c1ccc([N+](=O)[O-])cc1` [CBK266741], the viability at 28.5 h, 10 µM is 91.9%.

`CCCn1c(SCC(=O)Nc2scc(-c3cccs3)c2C(=O)OCC)n[nH]c1=O` [CBK296967]: the viability at 28.5 h, 10 µM came to 94.5%.

On to `Cc1ccc(C(=O)O)cc1N1C(=O)c2ccc(S(=O)(=O)c3ccc(C(=O)O)cc3)cc2C1=O` [CBK262747], for which the viability at 28.5 h, 10 µM turned out to be 96.1%.

Consider `NCCNc1cccc2c1ccn2S(=O)(=O)c1ccccc1` [CBK028470C], for which the viability at 28.5 h, 10 µM came out at 80.2%.

On to `CC(C)CS(=O)(=O)Nc1ccc(F)cc1F` [CBK020615], for which the viability at 28.5 h, 10 µM worked out at 91.9%.

In the case of `Cc1noc(C)c1C(=O)N1CCCCCC1c1c(Cl)cnn1C` (stereo not drawn) [CBK284918], the viability at 28.5 h, 10 µM was found to be 93.3%.

`Cc1ccccc1NC(=O)c1ccccc1Cl` [CBK116485]: the viability at 28.5 h, 10 µM was determined as 104%.

For the compound `Cn1nccc1C(=O)NC(Cc1cccs1)c1nccs1` (stereo not drawn) [CBK285055], the viability at 28.5 h, 10 µM turned out to be 102%.

As to `COc1cccc(CC(=O)Nc2ncccc2OCCCC#N)c1` [CBK304961], the viability at 28.5 h, 10 µM is 88%.

As for `CCOc1ccc(-c2cc(C(=O)N3CCN(C)CC3)c3ccccc3n2)cc1` [CBK066900], the viability at 28.5 h, 10 µM was found to be 99%.

As for `CCCNS(=O)(=O)c1cc(C(=O)O)ccc1OC` [CBK287152], the viability at 28.5 h, 10 µM is 98%.

For `Cc1ccc(O)c(NC(=O)COc2ccc(Cl)cc2)c1` [CBK268670], the viability at 28.5 h, 10 µM was 108%.

Regarding `Cc1onc(-c2ccccc2)c1C(=O)Nc1cccc(S(=O)(=O)N2CCOCC2)c1` [CBK268159], the viability at 28.5 h, 10 µM is 101%.

For the compound `O=C(Nc1cccc(S(=O)(=O)N2CCCC2)c1)c1nc[nH]n1` [CBK268353], the viability at 28.5 h, 10 µM was 103%.

Take `CCN(CC)CCNC(=O)c1ccc(/C=N/O)nc1` [CBK288375]: the viability at 28.5 h, 10 µM came out at 100%.

`Cc1ccc(S(=O)(=O)NCC(=O)N2CCN(c3ccc(Cl)cc3)CC2)cc1` [CBK091315]: the viability at 28.5 h, 10 µM is 93.3%.

Take `Cc1ccc(-c2nc3ccccc3[nH]2)cc1NC(=O)CCCc1ccccc1` [CBK265789]: the viability at 28.5 h, 10 µM stood at 92.9%.

Turning to `CCn1c2cc(C)sc2c2cnn(CC(=O)N3CCCC3)c(=O)c21` [CBK284168], the viability at 28.5 h, 10 µM was 99.8%.

Turning to `O=C(Nc1cc2ccccc2c(Br)n1)Nc1ccc(F)cc1C(F)(F)F` [CBK063278], the viability at 28.5 h, 10 µM was determined as 96.3%.

Take `COCCc1nsc(N2CCCC(c3nccs3)C2)n1` (stereo not drawn) [CBK305110]: the viability at 28.5 h, 10 µM is 92%.

`CCC(O)CNS(=O)(=O)c1ccc(OC(F)(F)F)cc1` (stereo not drawn) [CBK043557]: the viability at 28.5 h, 10 µM stood at 97.9%.
